According to ChEMBL document CHEMBL1201862, “PubChem BioAssay data set” (2004):
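Cells were grown in 96-well plates and exposed to each compound for 48 hours at five concentrations; endpoints were interpolated linearly between bracketing concentrations, or set to the highest concentration if not reached. Abbreviation: GI50, concentration required for 50% inhibition of growth.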 Activity calls are given as the source filed them. No stated cut-off is given here; in the data, active = GI50 up to about 1.1 µM and inactive = higher.

Legend:
Experiment in all cases: DTP human tumour cell line panel, 48 h
786-0 = system: 786-0
A498 = system: A498
A549 = system: A549
ACHN = system: ACHN
CAKI-1 = system: CAKI-1
CCRF-CEM = system: CCRF-CEM
COLO 205 = system: COLO 205
DMS-114 = system: DMS-114
DMS-273 = system: DMS-273
EKVX = system: EKVX
HCC 2998 = system: HCC 2998
HCT-15 = system: HCT-15
HL-60 = system: HL-60
HT-29 = system: HT-29
IGROV-1 = system: IGROV-1
K562 = system: K562
KM-20L2 = system: KM-20L2
KM12 = system: KM12
LOX IMVI = system: LOX IMVI
LXFL 529 = system: LXFL 529
M14 = system: M14
MOLT-4 = system: MOLT-4
Malme-3M = system: Malme-3M
NCI-H23 = system: NCI-H23
NCI-H460 = system: NCI-H460
NCI-H522 = system: NCI-H522
OVCAR-3 = system: OVCAR-3
OVCAR-4 = system: OVCAR-4
OVCAR-5 = system: OVCAR-5
OVCAR-8 = system: OVCAR-8
RPMI-8226 = system: RPMI-8226
RXF 393 = system: RXF 393
RXF 631 = system: RXF 631
SF-268 = system: SF-268
SF-295 = system: SF-295
SF-539 = system: SF-539
SK-MEL-28 = system: SK-MEL-28
SK-MEL-2 = system: SK-MEL-2
SK-MEL-5 = system: SK-MEL-5
SK-OV-3 = system: SK-OV-3
SN12C = system: SN12C
SNB-19 = system: SNB-19
SNB-75 = system: SNB-75
SNB-78 = system: SNB-78
SW-620 = system: SW-620
TK-10 = system: TK-10
U-251 = system: U-251
UACC-257 = system: UACC-257
UACC-62 = system: UACC-62
UO-31 = system: UO-31
XF498 = system: XF498
DLD-1 = system: DLD-1
HCT-116 = system: HCT-116
HOP-18 = system: HOP-18
HOP-62 = system: HOP-62
HOP-92 = system: HOP-92
M19-MEL = system: M19-MEL
NCI-H226 = system: NCI-H226
SR = system: SR
BT-549 = system: BT-549
DU-145 = system: DU-145
Hs-578T = system: Hs-578T
MCF7 = system: MCF7
MDA-MB-231 = system: MDA-MB-231
MDA-MB-435 = system: MDA-MB-435
MDA-N = system: MDA-N
NCI/ADR-RES = system: NCI/ADR-RES
PC-3 = system: PC-3
T47D = system: T47D

Measured: GI50

CC1(C)COC(c2cccc3c2C(=O)c2cccc(Cl)c2-3)=N1
56.4 µM: HCT-15
inactive: 786-0 39.4 µM | A498 32.1 µM | A549 58.1 µM | ACHN 51.1 µM | CAKI-1 55 µM | CCRF-CEM 43 µM | COLO 205 42.9 µM | DMS-114 36 µM | DMS-273 51.4 µM | EKVX 38.3 µM | HCC 2998 29.7 µM | HL-60 28.4 µM | HT-29 32 µM | IGROV-1 > 100 µM | K562 33.7 µM | KM-20L2 39.9 µM | KM12 47.9 µM | LOX IMVI 51.9 µM | LXFL 529 37.7 µM | M14 47.9 µM | MOLT-4 29.2 µM | Malme-3M 84.7 µM | NCI-H23 52.5 µM | NCI-H460 50.4 µM | NCI-H522 31.8 µM | OVCAR-3 78.2 µM | OVCAR-4 44.1 µM | OVCAR-5 > 100 µM | OVCAR-8 38.4 µM | RPMI-8226 31.7 µM | RXF 393 22.7 µM | RXF 631 74.3 µM | SF-268 56.5 µM | SF-295 48.4 µM | SF-539 68.7 µM | SK-MEL-28 58.7 µM | SK-MEL-2 > 100 µM | SK-MEL-5 25.3 µM | SK-OV-3 48.8 µM | SN12C 74 µM | SNB-19 21.1 µM | SNB-75 41.7 µM | SNB-78 97.1 µM | SW-620 37.8 µM | TK-10 41.7 µM | U-251 68.4 µM | UACC-257 33.7 µM | UACC-62 51.5 µM | UO-31 27.1 µM | XF498 46.7 µM

Cc1cn(C2CC(O)C(CO)O2)c(=O)n2nnnc12 (stereo not drawn)
inactive: 786-0 > 100 µM | A498 > 100 µM | A549 > 100 µM | CCRF-CEM > 100 µM | COLO 205 > 100 µM | DLD-1 > 100 µM | DMS-114 > 100 µM | DMS-273 > 100 µM | EKVX > 100 µM | HCC 2998 > 100 µM | HCT-116 > 100 µM | HL-60 > 100 µM | HOP-18 > 100 µM | HOP-62 > 100 µM | HOP-92 > 100 µM | HT-29 > 100 µM | IGROV-1 > 100 µM | K562 > 100 µM | KM12 > 100 µM | LOX IMVI > 100 µM | LXFL 529 > 100 µM | M14 > 100 µM | M19-MEL > 100 µM | MOLT-4 > 100 µM | Malme-3M > 100 µM | NCI-H226 > 100 µM | NCI-H23 > 100 µM | NCI-H460 > 100 µM | NCI-H522 > 100 µM | OVCAR-3 > 100 µM | OVCAR-4 > 100 µM | OVCAR-5 > 100 µM | OVCAR-8 > 100 µM | RPMI-8226 > 100 µM | RXF 631 > 100 µM | SF-268 > 100 µM | SF-295 > 100 µM | SF-539 > 100 µM | SK-MEL-28 > 100 µM | SK-MEL-2 > 100 µM | SK-MEL-5 > 100 µM | SK-OV-3 > 100 µM | SNB-19 > 100 µM | SNB-75 > 100 µM | SNB-78 > 100 µM | SR > 100 µM | SW-620 > 100 µM | TK-10 > 100 µM | U-251 > 100 µM | UACC-257 > 100 µM | UACC-62 > 100 µM | UO-31 > 100 µM
> 100 µM: HCT-15

COc1ccc2c(c1)C=C(C(C)(C)C)NS2(=O)=O
inactive: 786-0 > 100 µM | A498 > 100 µM | A549 > 100 µM | ACHN > 100 µM | CAKI-1 > 100 µM | CCRF-CEM > 100 µM | COLO 205 > 100 µM | DLD-1 > 100 µM | DMS-114 > 100 µM | DMS-273 > 100 µM | EKVX > 100 µM | HCC 2998 > 100 µM | HCT-116 > 100 µM | HL-60 > 100 µM | HOP-18 > 100 µM | HOP-62 > 100 µM | HOP-92 > 100 µM | HT-29 > 100 µM | IGROV-1 > 100 µM | K562 > 100 µM | KM-20L2 > 100 µM | KM12 > 100 µM | LOX IMVI > 100 µM | LXFL 529 > 100 µM | M14 > 100 µM | M19-MEL > 100 µM | MOLT-4 > 100 µM | Malme-3M > 100 µM | NCI-H226 > 100 µM | NCI-H23 > 100 µM | NCI-H460 > 100 µM | NCI-H522 > 100 µM | OVCAR-3 > 100 µM | OVCAR-4 > 100 µM | OVCAR-5 > 100 µM | OVCAR-8 > 100 µM | RXF 393 > 100 µM | RXF 631 > 100 µM | SF-268 > 100 µM | SF-295 > 100 µM | SF-539 > 100 µM | SK-MEL-28 > 100 µM | SK-MEL-2 > 100 µM | SK-MEL-5 > 100 µM | SK-OV-3 > 100 µM | SN12C > 100 µM | SNB-19 > 100 µM | SNB-75 > 100 µM | SNB-78 > 100 µM | SR > 100 µM | SW-620 > 100 µM | TK-10 > 100 µM | U-251 > 100 µM | UACC-257 > 100 µM | UACC-62 > 100 µM | UO-31 > 100 µM
> 100 µM: HCT-15

N=C(N)SCc1cccc2c(=O)cc(-c3ccccc3)oc12
inactive: 786-0 3.9 µM | A498 9.27 µM | A549 7.62 µM | ACHN 3.53 µM | BT-549 13.2 µM | CAKI-1 3.94 µM | CCRF-CEM 3.87 µM | COLO 205 3.78 µM | DLD-1 7.59 µM | DMS-114 6.47 µM | DMS-273 7.14 µM | DU-145 4.93 µM | EKVX 8.75 µM | HCC 2998 12 µM | HCT-116 4.73 µM | HL-60 3.18 µM | HOP-62 10.8 µM | HOP-92 4.03 µM | HT-29 4.84 µM | Hs-578T 16.2 µM | IGROV-1 6.32 µM | K562 5.35 µM | KM-20L2 6.24 µM | KM12 9.29 µM | LOX IMVI 12.2 µM | M14 5.28 µM | M19-MEL 13.2 µM | MCF7 2.73 µM | MDA-MB-231 6.41 µM | MDA-MB-435 8.02 µM | MDA-N 6.53 µM | MOLT-4 2.68 µM | Malme-3M 10.8 µM | NCI-H226 15.9 µM | NCI-H23 5.58 µM | NCI-H460 4.72 µM | NCI-H522 3.87 µM | NCI/ADR-RES 22 µM | OVCAR-3 6.97 µM | OVCAR-4 7.24 µM | OVCAR-5 16.5 µM | OVCAR-8 4.5 µM | PC-3 4.54 µM | RPMI-8226 2.54 µM | RXF 393 4.79 µM | RXF 631 9.95 µM | SF-268 12.4 µM | SF-295 11.4 µM | SF-539 7.26 µM | SK-MEL-28 4.43 µM | SK-MEL-2 5.56 µM | SK-MEL-5 11.1 µM | SK-OV-3 12.8 µM | SN12C 6.19 µM | SNB-19 23.9 µM | SNB-75 5.41 µM | SNB-78 6.32 µM | SR 4.05 µM | SW-620 4.37 µM | T47D 3.75 µM | TK-10 7.57 µM | U-251 7.66 µM | UACC-257 10.9 µM | UACC-62 12.7 µM | UO-31 2.84 µM | XF498 5.87 µM
10.5 µM: HCT-15
